For this test, the target named is T1, Recombinant human HSD17B13 enzyme (Homo sapiens, UniProt Q7Z5P4).
T1 sequence (Q7Z5P4 20-300): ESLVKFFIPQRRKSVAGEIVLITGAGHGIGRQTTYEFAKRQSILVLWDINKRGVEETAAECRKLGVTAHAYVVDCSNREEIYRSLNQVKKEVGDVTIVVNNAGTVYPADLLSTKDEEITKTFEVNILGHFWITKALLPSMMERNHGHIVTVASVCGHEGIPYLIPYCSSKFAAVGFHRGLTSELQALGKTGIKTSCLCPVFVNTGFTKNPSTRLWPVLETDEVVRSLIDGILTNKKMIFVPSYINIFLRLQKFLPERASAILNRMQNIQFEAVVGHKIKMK
As to the kind of experiment: HSD17b13 NAD(P)H-Glo biochemical assay. As to conditions: for IC50: 50 uM estradiol, 1 mM NAD+, NAD(P)H-Glo luminescence, read-out: HSD17β13 IC50. The procedure:
Example B-1: HSD17b13 NAD(P)H-Glo Biochemical Assay
Recombinant human HSD17B13 enzyme. Substrate: estradiol (Sigma β-Estradiol E8875), 100 mM in DMSO. Cofactor: NAD+ Grade I free acid (Sigma 10127965001), 20 mM in H2O. Assay buffer final concentration: 20 mM Tris pH7.4 with 0.002% Tween-20 and 0.02% BSA. Assay performed in 384 well solid bottom plate (Corning 3570). Enzymatic activity detected by NAD(P)H-Glo™ Detection System (Promega G9062).
Inhibitor compounds were serially diluted in DMSO and then further diluted in assay buffer to a 10× concentration consisting of 1% DMSO.
HSD17b13 enzyme was diluted in 1× assay buffer to the desired enzyme concentration based on the specific activity of the enzyme lot. 20 uL of diluted enzyme was added to each well along with 2.5 uL of 10× inhibitor solution. Assay plate was incubated at RT for 20 minutes, and then 2.5 uL of a 10× substrate/cofactor mix was added to each well for a final concentration of 50 uM estradiol and 1 mM NAD+. Assay plate was incubated at 37° C. for 3 hours. NAD(P)H-Glo™ Detection System reagents were prepared according to manufacturer's specifications, and 25 uL was added to each well. After incubating for 1 hour at RT, luminescence was measured.

Drawing on US20240083853A1, “HSD17B13 INHIBITORS AND USES THEREOF” (FL2022-001, Inc., priority 2020, published 2024), this text covers IC50 and inhibition for 34 compounds.

As to `Oc1ccc(-c2ccc(-n3ncc4cc(F)c(O)c(F)c43)cc2)cc1` [Compound 13.1, 5,7-Difluoro-1-(4′-hydroxy-[1,1′-biphenyl]-4-yl)-1H-indazol-6-ol], the half-inhibitory concentration (IC50) is less than 100 nM.
Same read-out and setting: the same measure for `CS(=O)(=O)N1CCC(c2ccc(-n3cnc4cc(F)c(O)c(F)c43)cc2)CC1` [Compound 28, 5,7-Difluoro-1-(4-(1-(methylsulfonyl)piperidin-4-yl)phenyl)-1H-benzo[d]imidazol-6-ol]: less than 100 nM.
Turning to `Cn1c(=O)n(-c2ccc(N3CCC(C)(C)CC3)cc2)c2c(F)c(O)c(F)cc21` [Compound 21.6, 3-(4-(4,4-Dimethylpiperidin-1-yl)phenyl)-4,6-difluoro-5-hydroxy-1-methyl-1H-benzo[d]imidazol-2(3H)-one], the IC50 was less than 100 nM.
As for `NC(=O)c1ccc(-c2ccc(-n3ncc4cc(F)c(O)cc43)cc2)cc1` [Compound 13.36, 4′-(5-Fluoro-6-hydroxy-1H-indazol-1-yl)-[1,1′-biphenyl]-4-carboxamide], the concentration for half-maximal inhibition (IC50) was 100 to 1000 nM.
Regarding `CS(=O)(=O)N1CCN(c2ccc(-n3ncc4cc(F)c(O)c(Cl)c43)cc2)CC1` [Compound 25, 7-Chloro-5-fluoro-1-(4-(4-(methylsulfonyl)piperazin-1-yl)phenyl)-1H-indazol-6-ol], the half-inhibitory concentration (IC50) was in the range of 100 to 1000 nM.
Same read-out and setting: the same measure for `Oc1c(F)cc2cnn(-c3ccc(C4=CCOCC4)cc3)c2c1F` [Compound 27.3, 1-(4-(3,6-Dihydro-2H-pyran-4-yl)phenyl)-5,7-difluoro-1H-indazol-6-ol]: less than 100 nM; for `CC1(C)CN(c2ccc(-n3ncc4cc(F)c(O)c(F)c43)cc2)CCO1` [Compound 20.5, 1-(4-(2,2-Dimethylmorpholino)phenyl)-5,7-difluoro-1H-indazol-6-ol]: less than 100 nM.
Same read-out and setting: the same measure for `Oc1c(F)cc2cnn(-c3ccc(-c4ccc(Cl)cc4)cc3)c2c1F` [Compound 13, 1-(4′-Chloro-[1,1′-biphenyl]-4-yl)-5,7-difluoro-1H-indazol-6-ol]: less than 100 nM.
Turning to `CC1(C)CCN(c2ccc(N3C(=O)Cc4cc(F)c(O)c(F)c43)cc2)CC1` [Compound 33, 1-(4-(4,4-Dimethylpiperidin-1-yl)phenyl)-5,7-difluoro-6-hydroxyindolin-2-one], the IC50 was 100 to 1000 nM.
With `CC1(C)CCN(c2ccc(-n3c(=O)oc4c(Br)c(F)c(O)c(F)c43)cc2)CC1` [Compound 38, 7-Bromo-3-(4-(4,4-dimethylpiperidin-1-yl)phenyl)-4,6-difluoro-5-hydroxybenzo[d]oxazol-2(3H)-one], the IC50 is less than 100 nM.
For `CC1(C)CCN(c2cnc(-n3nnc4cc(F)c(O)c(F)c43)cn2)CC1` [Compound 26.17, 1-(5-(4,4-Dimethylpiperidin-1-yl)pyrazin-2-yl)-5,7-difluoro-1H-benzo[d][1,2,3]triazol-6-ol], the IC50 is less than 100 nM.
On to `CS(=O)(=O)N1CCN(c2ccc(-n3ncc4c(C(F)(F)F)c(F)c(O)cc43)cc2)CC1` [Compound 4.1, 5-Fluoro-1-(4-(4-(methylsulfonyl)piperazin-1-yl)phenyl)-4-(trifluoromethyl)-1H-indazol-6-ol], for which the half-inhibitory concentration (IC50) was 100 to 1000 nM.
For `Oc1ccc(-c2ccc(-n3ncc4c(F)cc(O)cc43)cc2)cc1` [Compound 2.7, 4-Fluoro-1-(4′-hydroxy-[1,1′-biphenyl]-4-yl)-1H-indazol-6-ol], the IC50 was in the range of 100 to 1000 nM.
In the case of `Cn1c(=O)c2cc(F)c(O)c(F)c2n1-c1ccc(N2CCC(C)(C)CC2)cc1` [Compound 37, 1-(4-(4,4-Dimethylpiperidin-1-yl)phenyl)-5,7-difluoro-6-hydroxy-2-methyl-1H-indazol-3(2H)-one], the IC50 fell in the range of 100 to 1000 nM.
Take `Oc1c(F)cc2cnn(-c3ccc(N4CCC4)cc3)c2c1F` [Compound 23.12, 1-(4-(Azetidin-1-yl)phenyl)-5,7-difluoro-1H-indazol-6-ol]: the IC50 fell in the range of 100 to 1000 nM.
On to `NC(=O)c1cccc(-c2ccc(-n3ncc4cc(F)c(O)cc43)cc2)c1` [Compound 13.35, 4′-(5-Fluoro-6-hydroxy-1H-indazol-1-yl)-[1,1′-biphenyl]-3-carboxamide], for which the IC50 lay within 100 to 1000 nM.
As for `CS(=O)(=O)N1CCN(c2cnc(-n3ncc4cc(F)c(O)c(F)c43)cn2)CC1` [Compound 26.7, 5,7-Difluoro-1-(5-(4-(methylsulfonyl)piperazin-1-yl)pyrazin-2-yl)-1H-indazol-6-ol], the half-maximal inhibitory concentration (IC50) fell in the range of 100 to 1000 nM.
`Oc1cccc(-c2ccc(-n3nc(F)c4cc(F)c(O)cc43)cc2)c1` [Compound 5.3, 3,5-Difluoro-1-(3′-hydroxy-[1,1′-biphenyl]-4-yl)-1H-indazol-6-ol]: the half-maximal inhibitory concentration (IC50) fell in the range of 100 to 1000 nM.
Still for that read-out and setting: the figure for `CC1(C)CCN(c2ncc(-n3nnc4cc(F)c(O)c(F)c43)cn2)CC1` [Compound 42, 1-(2-(4,4-Dimethylpiperidin-1-yl)pyrimidin-5-yl)-5,7-difluoro-1H-benzo[d][1,2,3]triazol-6-ol] is less than 100 nM; for `COc1cccc(-c2ccc(-n3ncc4cc(F)c(O)cc43)cc2)c1` [Compound 13.20, 5-Fluoro-1-(3′-methoxy-[1,1′-biphenyl]-4-yl)-1H-indazol-6-ol] it is 100 to 1000 nM; for `CC1(C)CCN(c2ccc(N3C(=O)C(C)(C)c4cc(F)c(O)c(F)c43)cc2)CC1` [Compound 34, 1-(4-(4,4-Dimethylpiperidin-1-yl)phenyl)-5,7-difluoro-6-hydroxy-3,3-dimethylindolin-2-one] it is 1000 to 30000 nM.
Turning to `C[C@H]1CN(c2ccc(-n3ncc4cc(F)c(O)c(F)c43)cc2)C[C@H](C)S1` (relative stereo) [Compound 32.5, 1-(4-(trans-2,6-Dimethylthiomorpholino)phenyl)-5,7-difluoro-1H-indazol-6-ol], the IC50 was less than 100 nM.
For the compound `Oc1cc2c(cnn2-c2ccc(-c3cccc(Cl)c3)cc2)cc1F` [Compound 13.7, 1-(3′-Chloro-[1,1′-biphenyl]-4-yl)-5-fluoro-1H-indazol-6-ol], the 50% inhibitory concentration (IC50) was 100 to 1000 nM.
Turning to `CC1(C)CCN(c2ccc(-n3ncc4c(C(F)(F)F)c(F)c(O)cc43)cc2)CC1` [Compound 25.1, 1-(4-(4,4-Dimethylpiperidin-1-yl)phenyl)-5-fluoro-4-(trifluoromethyl)-1H-indazol-6-ol], the IC50 lay within 100 to 1000 nM.
On to `Oc1c(F)cc2nnn(-c3cnc(N4CC5(CCOCC5)C4)cn3)c2c1F` [Compound 26.18, 1-(5-(7-Oxa-2-azaspiro[3.5]nonan-2-yl)pyrazin-2-yl)-5,7-difluoro-1H-benzo[d][1,2,3]triazol-6-ol], for which the IC50 fell in the range of 100 to 1000 nM.
Regarding `COc1ccc(-c2ccc(-n3ncc4cc(F)c(O)cc43)cc2)cc1` [Compound 13.21, 5-Fluoro-1-(4′-methoxy-[1,1′-biphenyl]-4-yl)-1H-indazol-6-ol], the IC50 fell in the range of 100 to 1000 nM.
On the same count and under the same terms, the figure for `CC1(C)CCN(c2ccc(-n3nnc4cc(F)c(O)c(F)c43)cc2)CC1` [Compound 21, 1-(4-(4,4-Dimethylpiperidin-1-yl)phenyl)-5,7-difluoro-1H-benzo[d][1,2,3]triazol-6-ol] is less than 100 nM.
On to `CS(=O)(=O)N1CCN(c2ccc(-n3ncc4cnc(O)c(F)c43)cc2)CC1` [Compound 25.5, 7-Fluoro-1-(4-(4-(methylsulfonyl)piperazin-1-yl)phenyl)-1H-pyrazolo[4,3-c]pyridin-6-ol], for which the inhibition at 10 µM (3 h, at 10 uM compound, read-out: HSD17β13 % at 10 uM) is less than 20%.
Consider `C[C@H]1CN(c2ccc(-n3ncc4cc(F)c(O)c(F)c43)cc2)C[C@H](C)O1` (relative stereo) [Compound 20, 1-(4-(trans-2,6-Dimethylmorpholino)phenyl)-5,7-difluoro-1H-indazol-6-ol], for which the IC50 is less than 100 nM.
Still for that read-out and setting: the figure for `Oc1c(F)cc2nnn(-c3ccc(N4CCO[C@H](c5ccccc5)C4)cc3)c2c1F` [Compound 26.27, (R)-5,7-Difluoro-1-(4-(2-phenylmorpholino)phenyl)-1H-benzo[d][1,2,3]triazol-6-ol] is 100 to 1000 nM; for `CC1(C)CCN(c2ccc(-n3c(=O)oc4cc(F)c(O)c(F)c43)cc2)CC1` [Compound 39, 3-(4-(4,4-Dimethylpiperidin-1-yl)phenyl)-4,6-difluoro-5-hydroxybenzo[d]oxazol-2(3H)-one] it is less than 100 nM; for `Oc1c(F)cc2nnn(-c3ccc(N4CC5(CCOCC5)C4)cn3)c2c1F` [Compound 26.15, 1-(5-(7-Oxa-2-azaspiro[3.5]nonan-2-yl)pyridin-2-yl)-5,7-difluoro-1H-benzo[d][1,2,3]triazol-6-ol] it is 100 to 1000 nM.
Regarding `Oc1cc2c(nnn2-c2ccc(N3CC4(CCOCC4)C3)cc2)c(F)c1F` [Compound 40.3, 1-(4-(7-oxa-2-azaspiro[3.5]nonan-2-yl)phenyl)-4,5-difluoro-1H-benzo[d][1,2,3]triazol-6-ol], the IC50 lay in the range of 100 to 1000 nM.
On to `CC1(C)CCN(c2ccc(-n3c(Cl)nc4cc(F)c(O)c(F)c43)cc2)CC1` [Compound 21.9, 2-Chloro-1-(4-(4,4-dimethylpiperidin-1-yl)phenyl)-5,7-difluoro-1H-benzo[d]imidazol-6-ol], for which the concentration for half-maximal inhibition (IC50) is 100 to 1000 nM.
